Measurements: US20240279687A1, “PEPTIDE NUCLEIC ACIDS FOR SPATIOTEMPORAL CONTROL OF CRISPR-CAS BINDING” (Yale University, priority 2021, published 2024)
{Lys} = L-lysine residue attached to the PNA terminus

What was measured:
[1] = tested on: 20mer RNA oligonucleotide (spacer sequence designed to target the BFP gene); experiment: UV spectroscopy thermal melting analysis of duplexes; type: binding; details: 1 μM each strand, 10 mM sodium phosphate buffer pH 7.4
Method: All samples were prepared by mixing a stoichiometric amount of each strand (1 μM) in 10 mM sodium phosphate buffer at pH 7.4 (Table 8). The samples were pre-annealed at 95° C. for 5 mins and gradually cooled to room temperature prior to the melting experiment. UV melting experiments were performed using a Shimadzu UV-3600 Plus UV-Vis-NIR spectrophotometer equipped with a thermoelectrically controlled multicell holder. UV melting spectra were recorded after every 1° C. temperature change by monitoring the absorbance at 260 nm from 20° C. to 110° C. to 20° C., with a heating/cooling ramp rate of 1.0° C./min. The heating and cooling curves were overlapped to confirm reversible denaturation. All spectra were plotted on Origin 2020 and smoothed using a 20-point adjacent averaging algorithm. The first derivative plots of the melting curves were generated to determine the melting temperature for each duplex.

[2] = tested on: Cas9 RNP using a sgRNA targeted to the BFP gene; experiment: Cas9 RNP editing of BFP reporter gene in K562-BFP cells (BFP fluorescent drop out, flow cytometry); type: cell-based, human; details: for inhibitory effect on Cas9-mediated BFP gene disruption and indel formation: 0-250 pmol nucleofected 2 hours prior to Cas9 RNP
Method: (§1) For Cas9 RNP assembly, 50 pmol of sgRNA (IDT, Alt-R CRISPR-Cas9 sgRNA) and 45 pmol of SpCas9 (CPO2, PNA BIO) were incubated at room temperature for 10 minutes in a 5 μL reaction in 1×3.1 Buffer (B7203S, NEB). For nucleofections, 1×10^6 cells, 5 μL Cas9 RNP, and 1 μL of Alt-R Cas9 electroporation enhancer (IDT) were resuspended in 100 μL of Lonza cell line solution (V4XC-2024/V4XC-1024, Lonza) and nucleofected using a Lonza 4D-Nucleofector X unit. Cas9 RNP treated cells were seeded in 2 mL of complete media and incubated for 96 hours prior to harvesting for analysis.
(§2) For PNA pre-treatments, 1×10^6 cells and 1 μL of PNA diluted to desired concentration in water were similarly nucleofected using Lonza cell line kits and 4D-Nucleofector. PNA nucleofected cells were resuspended in 1.25 mL of complete media in 1.5 mL tubes and incubated at 37° C. for 2 hours before Cas9 RNP nucleofection as described above. After Cas9 RNP nucleofection cells were seeded in 2 mL of complete media and incubated for 96 hours prior to harvesting and analysis.
K562 cells were spun down and resuspended in fresh complete media at 300,000 cells/mL 48 hours prior to analysis. Samples for flow cytometry were fixed in complete media with 1% formaldehyde for 15 minutes before spinning down, resuspending in 300 μL PBS, and filtering through a cell strainer capped tube. Samples were analyzed for BFP and GFP fluorescence using a Cytoflex LX instrument (Beckman Coulter) using PacificBlue and FITC lasers, respectively, and quantification and gating was done using FloJo v10 software. Background fluorescent drop out was determined by measurement of mock nucleofected lines in quadruplicate and subtracted from experimental values to determine reported editing frequency.
10^6 stable BFP-expressing K562 cells were nucleofected (Lonza 4D Nucleofector) with a specified dose of PNA or ssDNA oligo (0-250 pmol). Two hours later, all conditions were nucleofected with 45 pmol of purified Cas9 RNP using a sgRNA targeted to the BFP gene. 72 hours later, cells with BFP fluorescent drop out (via Cas9 indel formation) were quantified by flow cytometry (Beckman Coulter—Cytoflex instrument).
In time-course experiments in FIG. 3D, K562 samples were nucleofected with 5 μL RNP reactions with the addition of 100 pmol of ssODN donor in 1 μL of water. RNP nucleofected samples were incubated at 37° C. in complete media before being spun down and nucleofected with 250 pmol of PNA at specified time points. After PNA delivery cells were seeded in 2 mL of complete media and incubated for 96 hours prior to harvesting and analysis.
10^6 stable BFP-expressing K562 cells were nucleofected (Lonza 4D Nucleofector) with specified dose (0-250 pmol, or 250 pmol if unspecified) of specified PNA with sequences homologous to (antispacer) or identical to (cis-spacer) the BFP gRNA spacer sequence. Two hours later, all conditions were nucleofected with 45 pmol of purified Cas9 RNP using a sgRNA targeted to the BFP gene. 72 hours later, cells with BFP fluorescent drop out (via Cas9 indel formation) were quantified by flow cytometry (Beckman Coulter—Cytoflex instrument).
10^6 stable BFP-expressing K562 cells were nucleofected (Lonza 4D Nucleofector) with 45 pmol of purified Cas9 RNP using a sgRNA targeted to the BFP gene. At each specified time point 250 pmol of BFP Anti-protospacer PNA were introduced via nucleofection. For “Cas9 only” condition there was no second PNA nucleofection and for “0 hrs” 250 pmol of PNA was co-nucleofected with Cas9 in a single reaction. After each nucleofection samples were left in fresh media for the duration of the experiment to acquire edits. 72 hours after the “24 hrs” nucleofection, cells for all conditions with BFP fluorescent drop out (via Cas9 indel formation) were quantified by flow cytometry (Beckman Coulter—Cytoflex instrument).

[3] = tested on: Cas9 RNP (FANCF, EMX1, ZSCAN2, CCR5, VEGFA gRNAs); experiment: On-target specificity of Cas9 RNP (ratio of on-target to off-target editing rates); type: cell-based, human
Method: as §2
(§3) Genomic DNA was purified from 0.5×10^6 cells using Promega ReliaPrep gDNA Tissue Miniprep System (A2052) and eluted in 50 μL of water. Library prep used 100 ng of gDNA input with Ampliseq for Illumina Library Plus kit (20019101, Illumina) and used a custom primer pool designed to amplify a designed panel of genomic targets of interest (Table 9). Libraries were indexed, pooled, and loaded onto a Mid-output (300-cycles, Illumina, FC-420-1004) cartridge for paired-end sequencing on an Illumina Miniseq instrument. FASTQ reads were subjected to quality analysis (Basespace FASTQC) and analyzed for indel frequency using Cas-Analyzer assessment tool (parameters: Comparison range (R)—both ends of full amplicon sequence, Minimum frequency (n)=1). gRNAs used in this study are listed in Table 8, amplicon genomic coordinates listed in Table 9.
In the case of EMX1 ON and OFF target amplicons, both regions were amplified from 200 ng of purified gDNA by Phusion High-Fidelity Polymerase (NEB, M0530S) and pooled and purified using QIAGEN PCR purification kit (28104, Qiagen). Library prep used 200 ng of purified amplicon input with Illumina DNA Prep kit (20025519, Illumina). EMX1 libraries were similarly indexed, pooled, sequenced, and analysed as above.
For pre-annealed PAM-distal PNA experiments, 50 pmol of sgRNA and 50 pmol of PAM-distal 10mer PNAs were incubated in a thermocycler at 37° C. for 30 minutes in a 5 μL reaction in 1×3.1 Buffer (B7203S, NEB) to allow annealing. PNA annealing to sgRNAs was confirmed by gel shift on 5% polyacrylamide gel. 45 pmol of SpCas9 (CP02, PNA BIO) was then added at room temperature and incubated for 10 minutes to allow RNP formation. Resulting reaction was delivered to 1×10^6 K562 cells by a single nucleofection and treated as described above.

[4] = tested on: Cas9 RNP, ZSCAN2 sgRNA, ZSCAN2 ON site; experiment: ZSCAN2 on-target editing in K562 cells (amplicon sequencing); type: cell-based, human; details: PNA pre-treatment 2 hours before Cas9 RNP (FIG. 10A: 50 pmol PNA)
Method: as §1
(§4) For PNA pre-treatments, 1×10^6 cells and 1 μL of PNA diluted to desired concentration in water were similarly nucleofected using Lonza cell line kits and 4D-Nucleofector. PNA nucleofected cells were resuspended in 1.25 mL of complete media in 1.5 mL tubes and incubated at 37° C. for 2 hours before Cas9 RNP nucleofection as described above. […]
(§5) Genomic DNA was purified from 0.5×10^6 cells using Promega ReliaPrep gDNA Tissue Miniprep System (A2052) and eluted in 50 μL of water. […] FASTQ reads were subjected to quality analysis (Basespace FASTQC) and analyzed for indel frequency using Cas-Analyzer assessment tool (parameters: Comparison range (R)—both ends of full amplicon sequence, Minimum frequency (n)=1). gRNAs used in this study are listed in Table 8, amplicon genomic coordinates listed in Table 9.

[5] = tested on: Cas9 RNP, ZSCAN2 sgRNA, ZSCAN2 off-target site; experiment: ZSCAN2 off-target editing in K562 cells (amplicon sequencing); type: cell-based, human; details: PNA pre-treatment 2 hours before Cas9 RNP (FIG. 10A: 50 pmol PNA)
Method: as §1, §4, §5

[6] = tested on: Cas9 RNP, FANCF sgRNA, FANCF ON site; experiment: FANCF on-target editing in K562 cells (amplicon sequencing); type: cell-based, human
Method: For Cas9 RNP assembly, 50 pmol of sgRNA (IDT, Alt-R CRISPR-Cas9 sgRNA) and 45 pmol of SpCas9 (CPO2, PNA BIO) were incubated at room temperature for 10 minutes in a 5 μL reaction in 1×3.1 Buffer (B7203S, NEB). For nucleofections, 1×10^6 cells, 5 μL Cas9 RNP, and 1 μL of Alt-R Cas9 electroporation enhancer (IDT) were resuspended in 100 μL of Lonza cell line solution (V4XC-2024/V4XC-1024, Lonza) and nucleofected using a Lonza 4D-Nucleofector X unit. Cas9 RNP treated cells were seeded in 2 mL of complete media and incubated for 96 hours prior to harvesting for analysis. […]
as §5
(§6) 10^6 K562 cells were nucleofected (Lonza 4D Nucleofector) with specified dose (0-150 pmol) of FANCF PAM-distal 10mer PNA. […] Sequencing data was analyzed for indel frequency using a validated Cas-Analyzer tool (Park, et al., Bioinformatics 33, 286-288 (2017)).

[7] = tested on: Cas9 RNP, FANCF sgRNA, FANCF OT1 site; experiment: FANCF off-target editing in K562 cells (amplicon sequencing); type: cell-based, human
Method: as §1, §2
as §3, with “Libraries were indexed, pooled, and loaded onto a Mid-output (300-cycles, Illumina, FC-420-1004) cartridge for paired-end sequencing on an Illumina Miniseq instrument.” left out
as §6

[8] = tested on: HBB sgRNA and HBB Cas9 RNP; experiment: sgRNA binding assay (EMSA) with TAMRA dye-labeled PNA, HBB target; details: heterologous spacer sequence (HBB target)
Method: (§7) 10 pmol of BFP or HBB sgRNA were incubated with or without 10 pmol of purified Cas9 (Sigma) in 20 μL of 1×NEB buffer 3.1 for 15 minutes at room temp. Then, specified doses of a TAMRA dye labeled antispacer BFP ssPNA was added to each reaction and tubes were incubated in thermocycler for 30 minutes at 37C. 5 μL of resulting reactions were run on pre-cast 5% polyacrylamide TBE gels (BIORAD). The gel was washed in 1×TBE buffer and imaged for TAMRA signal using a Gel Doc XR+ gel imager system (BIORAD). Gel was then incubated in 1×SYBR Gold in TBE for 5 minutes, washed in 1×TBE, and imaged for nucleic acid staining on Gel Doc XR+ imager. Resulting images were superimposed using ImageJ.

[9] = tested on: BFP sgRNA and BFP Cas9 RNP; experiment: sgRNA binding assay (EMSA) with TAMRA dye-labeled PNA, BFP target
Method: as §7

[10] = tested on: Cas9 RNP, CCR5 R30 sgRNA, CCR2 off-target site; experiment: CCR5 gRNA off-target editing in the CCR2 gene in K562 cells (amplicon sequencing); type: cell-based, human; details: PNA pre-treatment 2 hours before Cas9 RNP (FIG. 10A: 50 pmol PNA)
Method: as §1, §4, §5

[11] = tested on: Cas9 RNP, CCR5 R30 sgRNA, CCR5 ON site; experiment: CCR5 on-target editing in K562 cells (amplicon sequencing); type: cell-based, human; details: PNA pre-treatment 2 hours before Cas9 RNP (FIG. 10A: 50 pmol PNA)
Method: as §1, §4, §5

ATGGCGTGCAGTGCTTCAGC (KKK-ATGGCGTGCAGTGCTTCAGC-KKK; as printed in the source, key not given here) [Anti-protospacer ssDNA oligo, reference compound]
Tm of duplex with RNA spacer sequence [1]: 56 °C
inhibitory effect on Cas9-mediated BFP gene disruption and indel formation [2]: entirely ineffective
inhibitory effect on Cas9-mediated BFP gene disruption and indel formation ([2]; listed as antispacer DNA): no effect

CTTGCCGCAC (all peptide nucleic acid (PNA); further chemistry not fully specified) [ZSCAN PAMdist 10 mer PNA, 1 Lysine (K) on either end]
overall increase in specificity ([3]; K562 cells, PNA pre-treatment): not observed
decrease of on-target editing [4]: 80.3%
decrease of off-target editing [5]: 66.3%

K-CTTCTGCAGC-K (all peptide nucleic acid (PNA), 5' {Lys}, 3' {Lys}) [FANCF PAM-Distal 10 mer PNA]
specificity ratio versus Cas9 only ([3]; K562, HEK293, and U2OS cell lines, PNA pre-treatment prior to Cas9 RNP nucleofection): significantly increased specificity ratios
specificity versus pre-treatment approaches ([3]; PNA pre-annealed to sgRNA prior to Cas9 RNP formation, delivered as a single complex, K562): further improved specificity
on-target editing ([6]; 50 pmol PNA (98.0% without PNA)): 93.2%
reduction of on-target editing ([6]; 50 pmol, 1:1 PNA:sgRNA ratio): 4.9%
difference in editing reduction, off-target versus on-target ([7]; 50 pmol): 11.6 fold
off-target editing ([7]; 50 pmol PNA (7.13% without PNA)): 3.07%
reduction of off-target editing ([7]; 50 pmol, 1:1 PNA:sgRNA ratio, compared to Cas9 RNP only): 57.1%

KKK-ATGGCGTGCAGTGCTTCAGC-KKK (all peptide nucleic acid (PNA), 5' {Lys}-{Lys}-{Lys}, 3' {Lys}-{Lys}-{Lys}) [BFP Antispacer PNA]
Tm of duplex with RNA spacer sequence [1]: > 100 °C
inhibitory effect on Cas9-mediated BFP gene disruption and indel formation [2]: robust dose-dependent inhibitory effect
block of indel formation (NHEJ) and template-mediated editing (HDR) when PNA is introduced after Cas9 RNP ([2]; 250 pmol PNA at time-points up to 24 hours after Cas9 RNP/ssODN nucleofection): rapidly and proportionally block both indel formation (NHEJ) and template-mediated editing (HDR)

TAMRA-KKK-ATGGCGTGCAGTGCTTCAGC-KKK (all peptide nucleic acid (PNA); N-terminal TAMRA dye, three lysines flank each end) [TAMRA BFP Antispacer PNA, TAMRA dye conjugated at N-terminus]
PNA-TAMRA signal co-localization with sgRNA and RNP bands [8]: not
additional binding at 20 pmol (2×) doses compared to 10 pmol ([9]; 10 pmol sgRNA, 10 pmol Cas9): no significant additional binding
increase in PNA binding (TAMRA-Cas9 RNP gel bands) between 5 pmol (0.5×) and 10 pmol (1×) conditions ([9]; 10 pmol sgRNA, 10 pmol Cas9): 2.09 fold
PNA-TAMRA signal co-localization with sgRNA and RNP bands ([9]; sequence-matched (BFP target)): strongly co-localized

TCCGCTCTAC (all peptide nucleic acid (PNA); further chemistry not fully specified) [CCR5 PAMdist 10 mer PNA, 1 Lysine (K) on either end]
off-target editing in the CCR2 gene [10]: undetectable
decrease of on-target editing [11]: 79.1%
